Source: US6995159B2, “5-HT receptor ligands and uses thereof” (Pfizer Inc., priority 2001, dated 2006)
Structures can show the parent of a compound that is named as a salt.

Each compound was assayed on 5-HT2c receptor (assay: Functional assay (FLIPR calcium, Fluo 4-AM) in 5-HT2c expressed cells). Conditions: 5-HT2c expressed NIH 3T3 cells.
Type: cell-based
Protocol: (§1) Swiss 3T3 cells expressing r-5HT2C, r-5HT2A, h-5HT2C or h-5HT2A receptors are seeded at a density of 12,500 cells/well in 384 well black/clear collagen-coated plates. Forty eight (48) hrs later the cells are loaded with the calcium sensitive dye, Fluo 4-AM (4 μM dissolved in DMSO containing pluronic acid) in serum free DMEM in the presence of probenicid (2.5 mM) for 75 minutes at 37° C. in a CO2 incubator. Unincorporated dye is removed by washing 3 times with a HEPES-buffered saline containing probenicid (2.5 mM) using a Skatron™ cell washer (final volume 30 μL).
(§2) Plates are added to a fluorometric imaging plate reader (FLIPR 384 available from Molecular Devices Corporation) individually and fluorescence measurements are taken every 2 seconds over an 85 seconds period. Test compound additions are made simultaneously to all 384 wells after 20 seconds of baseline recording. Concentration-response curves are generated using Graphpad Prism™ (available from GraphPad Software, Inc., San Diego, Calif.) and agonist efficacies are generated as % of the response to 10 μM 5-HT (considered as 100%). Estimation of antagonist potencies (functional Kis) are generated by measuring inhibition of the test compound response to 5-HT (10 nM for 5-HT2C and 50 nM for 5-HT2A) and applying the Cheng Prusoff equation.
The functional data for the compounds listed in the Examples above utilizing the 5-HT2c expressed NIH 3T3 cells is summarized below.

Structure (SMILES)	functional mode at 5-HT2c (partial agonist / full antagonist)
Fc1ccc(C(F)(F)F)c(COc2nccc(N3CCNCC3)n2)c1 [Example 1-PP, 2-(5-Fluoro-2-trifluoromethyl-benzyloxy)-4-piperazin-1-yl-pyrimidine]	full antagonists
Clc1ccc(COc2ccnc(N3CCNCC3)n2)cc1Cl [Example 2-F, 4-(3,4-Dichloro-benzyloxy)-2-piperazin-1-yl-pyrimidine]	full antagonists

Same assay, conditions: at 10 μM; 5-HT2c expressed NIH 3T3 cells

Structure (SMILES)	5-HT2c functional activity
FC(F)(F)c1cc(COc2nccc(N3CCNCC3)n2)cc(C(F)(F)F)c1 [Example 1-QQ, 2-(3,5-Bis-trifluoromethyl-benzyloxy)-4-piperazin-1-yl-pyrimidine]	no 5-HT2c functional activity
CC(Oc1ccnc(N2CCNCC2)n1)c1ccc(Cl)cc1 (stereo not shown) [Example 2-D, 4-[1-(4-Chloro-phenyl)-ethoxy]-2-piperazin-1-yl-pyrimidine]	no 5-HT2c functional activity
Cc1ccc(COc2ccnc(N3CCNCC3)n2)cc1C.Cl [Example 2-H, 4-(3,4-Dimethyl-benzyloxy)-2-piperazin-1-yl-pyrimidine, hydrochloride]	no 5-HT2c functional activity

These compounds were tested on 5-HT2a receptor (assay: Functional assay (FLIPR calcium, Fluo 4-AM) in 5-HT2a expressed cells). Conditions: 5-HT2a expressed NIH 3T3 cells.
Type: cell-based
Protocol: as §1, §2
The functional data for the compounds listed in the Examples above utilizing the 5-HT2a expressed NIH 3T3 cells is summarized below.

Structure (SMILES)	functional mode at 5-HT2a (partial agonist / full antagonist)
COc1cccc(COc2nc(C)cc(N3CCNCC3)n2)c1 [Example 1-AL, 2-(3-Methoxy-benzyloxy)-4-methyl-6-piperazin-1-yl-pyrimidine]	full antagonists
Cl.Clc1cccc(Cl)c1COc1nccc(N2CCNCC2)n1 [Example 1-FF, 2-(2,6-Dichloro-benzyloxy)-4-piperazin-1-yl-pyrimidine, hydrochloride]	full antagonists
Cl.Clc1cccc(COc2nccc(N3CCNCC3)n2)c1Cl [Example 1-GG, 2-(2,3-Dichloro-benzyloxy)-4-piperazin-1-yl-pyrimidine, hydrochloride]	full antagonists
Cl.Clc1cc(Cl)cc(COc2nccc(N3CCNCC3)n2)c1 [Example 1-HH, 2-(3,5-Dichloro-benzyloxy)-4-piperazin-1-yl-pyrimidine, hydrochloride]	full antagonists
Cl.FC(F)(F)Oc1ccccc1COc1nccc(N2CCNCC2)n1 [Example 1-II, 4-Piperazin-1-yl-2-(2-trifluoromethoxy-benzyloxy)-pyrimidine, hydrochloride]	full antagonists
C[C@@H]1CN(c2ccnc(OCc3cccc(Cl)c3)n2)CCN1 [Example 1-MM, 2-(3-Chloro-benzyloxy)-4-[(3R)-methyl-piperazin-1-yl]pyrimidine]	full antagonists
Fc1ccc(C(F)(F)F)c(COc2nccc(N3CCNCC3)n2)c1 [Example 1-PP, 2-(5-Fluoro-2-trifluoromethyl-benzyloxy)-4-piperazin-1-yl-pyrimidine]	full antagonists
Clc1ccc(COc2nccc(N3CCNCC3)n2)cc1Cl [Example 1-S, 2-(3,4-Dichloro-benzyloxy)-4-piperazin-1-yl-pyrimidine]	full antagonists
Fc1ccc(COc2nccc(N3CCNCC3)n2)cc1F [Example 1-U, 2-(3,4-Difluoro-benzyloxy)-4-piperazin-1-yl-pyrimidine]	full antagonists
C[C@H]1CNCCN1c1ccnc(OCc2cc(Cl)ccc2Cl)n1 [Example 1-VV, 2-(2,5-Dichloro-benzyloxy)-4-[(2S)-methyl-piperazin-1-yl]-pyrimidine]	full antagonists
C[C@H]1CNCCN1c1ccnc(OCc2cc(F)ccc2F)n1 [Example 1-WW, 2-(2,5-Difluoro-benzyloxy)-4-[(2S)-methyl-piperazin-1-yl]-pyrimidine]	full antagonists
Cl.Fc1cccc(COc2nccc(N3CCNCC3)n2)c1F [Example 1-Y, 2-(2,3-Difluoro-benzyloxy)-4-piperazin-1-yl-pyrimidine, hydrochloride]	full antagonists
Fc1cc(COc2nccc(N3CCNCC3)n2)cc(F)c1F [Example 1-YY, 4-Piperazin-1-yl-2-(3,4,5-trifluoro-benzyloxy)-pyrimidine]	full antagonists
Fc1ccc(COc2ccnc(N3CCNCC3)n2)cc1 [Example 2-E, 4-(4-Fluoro-benzyloxy)-2-piperazin-1-yl-pyrimidine]	full antagonists
Clc1ccc(COc2ccnc(N3CCNCC3)n2)cc1Cl [Example 2-F, 4-(3,4-Dichloro-benzyloxy)-2-piperazin-1-yl-pyrimidine]	full antagonists
Fc1ccc(COc2ccnc(N3CCNCC3)n2)cc1F [Example 2-G, 4-(3,4-Difluoro-benzyloxy)-2-piperazin-1-yl-pyrimidine]	full antagonists
Cc1ccc(COc2ccnc(N3CCNCC3)n2)cc1C.Cl [Example 2-H, 4-(3,4-Dimethyl-benzyloxy)-2-piperazin-1-yl-pyrimidine, hydrochloride]	full antagonists
Fc1cccc(COc2ccnc(N3CCNCC3)n2)c1F.O=C(O)C(F)(F)F [Example 2-I, 4-(2,3-Difluoro-benzyloxy)-2-piperazin-1-yl-pyrimidine, trifluoroacetate]	full antagonists
Cl.c1ccc(CNc2nccc(N3CCNCC3)n2)cc1 [Example 3-D, Benzyl-(4-piperazin-1-yl-pyrimidin-2-yl)-amine, hydrochloride]	full antagonists
Cl.Clc1cccc(CNc2ccnc(N3CCNCC3)n2)c1 [Example 4-A, (3-Chloro-benzyl)-(2-piperazin-1-yl-pyrimidin-4-yl)-amine, hydrochloride]	full antagonists
Cl.Fc1cccc(CNc2ccnc(N3CCNCC3)n2)c1 [Example 4-B, (3-Fluoro-benzyl)-(2-piperazin-1-yl-pyrimidin-4-yl)-amine, hydrochloride]	full antagonists
Fc1cccc(CNc2ccnc(N3CCNCC3)n2)c1.O=C(O)/C=C/C(=O)O [Example 4-C, (3-Fluoro-benzyl)-(2-piperazin-1-yl-pyrimidin-4-yl)-amine, fumarate]	full antagonists
Cl.c1ccc(CNc2ccnc(N3CCNCC3)n2)cc1 [Example 4-D, Benzyl-(2-piperazin-1-yl-pyrimidin-4-yl)-amine, hydrochloride]	full antagonists
Clc1cccc(COc2nccc(N3CCNCC3)n2)n1 [Example 5-A, 2-(6-Chloro-pyrdin-2-ylmethoxy)-4-piperazin-1-yl-pyrimidine, hydrochloride]	full antagonists

Same assay, conditions: at 10 μM; 5-HT2a expressed NIH 3T3 cells

Structure (SMILES)	5-HT2a functional activity
C[C@H](Oc1nccc(N2CCNCC2)n1)c1ccccc1 [Example 1-AG, 2-[(1S)-Phenyl-ethoxy]-4-piperazin-1-yl-pyrimidine]	no functional activity
COc1cccc(COc2nc(C)cc(N3CCNCC3)n2)c1 [Example 1-AL, 2-(3-Methoxy-benzyloxy)-4-methyl-6-piperazin-1-yl-pyrimidine]	no functional activity
Cc1cc(N2CCNCC2)nc(OCc2cccc(Oc3ccccc3)c2)n1 [Example 1-D, 4-Methyl-2-(3-phenoxy-benzyloxy)-6-piperazin-1-yl-pyrimidine]	no functional activity
Cc1cc(N2CCNCC2)nc(OCc2cccc(OC(F)(F)F)c2)n1 [Example 1-F, 4-Methyl-6-piperazin-1-yl-2-(3-trifluoromethoxy-benzyloxy)-pyrimidine]	no functional activity
FC(F)(F)c1cc(COc2nccc(N3CCNCC3)n2)cc(C(F)(F)F)c1 [Example 1-QQ, 2-(3,5-Bis-trifluoromethyl-benzyloxy)-4-piperazin-1-yl-pyrimidine]	no functional activity
